# Where “and” joins values, the source holds several entries; their conditions need not be identical. Equal entries are not always repeated.
# Molecular target: SARS-CoV-2 3CL^pro C145G (Severe acute respiratory syndrome coronavirus 2, UniProt P0DTD1, C3408G)
# Type: binding
row,SMILES,-TΔS
1,CC(C)(C)NC(=O)N[C@H](C(=O)N1C[C@H]2[C@@H]([C@H]1C(=O)N[C@H](C#N)C[C@@H]1CCNC1=O)C2(C)C)C(C)(C)C [compound 2],-5.978 ± 0.1 kcal/mol and -5.978 kcal/mol
2,CC(C)(C)NC(=O)N[C@H](C(=O)N1CC2(C[C@H]1C(=O)N[C@H](C#N)C[C@@H]1CCNC1=O)SCCS2)C(C)(C)C [compound 7],-4.818 ± 0.268 kcal/mol and -4.818 kcal/mol
3,CC(C)(C)[C@H](NC(=O)C1(F)CC1)C(=O)N1CC2(C[C@H]1C(=O)N[C@H](C#N)C[C@@H]1CCNC1=O)SCCS2 [compound 10],-2.18 ± 0.562 kcal/mol and -2.18 kcal/mol
4,CC(C)(C)[C@H](NS(C)(=O)=O)C(=O)N1CC2(C[C@H]1C(=O)N[C@H](C#N)C[C@@H]1CCNC1=O)SCCS2 [compound 11],-3.559 ± 0.332 kcal/mol and -3.559 kcal/mol
5,CC(C)(C)[C@H](NS(=O)(=O)C1CC1)C(=O)N1CC2(C[C@H]1C(=O)N[C@H](C#N)C[C@@H]1CCNC1=O)SCCS2 [compound 12],-1.19 ± 0.325 kcal/mol and -1.19 kcal/mol
